Assays:
CYP2C8 = target: T1, CYP2C8 (Homo sapiens, UniProt P10632); assay: Time-dependent inhibition (IC50 shift) of CYP2C8 in human liver microsomes; settings: microsomes
T1 sequence (P10632 1-490): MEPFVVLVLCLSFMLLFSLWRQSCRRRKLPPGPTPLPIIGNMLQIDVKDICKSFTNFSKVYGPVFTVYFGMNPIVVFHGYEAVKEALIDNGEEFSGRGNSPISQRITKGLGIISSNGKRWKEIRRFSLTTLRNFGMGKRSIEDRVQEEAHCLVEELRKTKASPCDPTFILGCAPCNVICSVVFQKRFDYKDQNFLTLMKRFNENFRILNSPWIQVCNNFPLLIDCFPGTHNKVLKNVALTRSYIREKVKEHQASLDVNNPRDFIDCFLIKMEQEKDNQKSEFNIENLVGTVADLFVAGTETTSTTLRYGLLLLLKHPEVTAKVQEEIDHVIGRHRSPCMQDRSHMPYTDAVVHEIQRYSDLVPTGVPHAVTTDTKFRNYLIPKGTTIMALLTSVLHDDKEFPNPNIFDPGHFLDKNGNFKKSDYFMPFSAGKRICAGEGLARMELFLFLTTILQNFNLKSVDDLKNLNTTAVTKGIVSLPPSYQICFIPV
Method: Donors CMV negative for serology are unm
All incubations were conducted in duplicate.
% remaining=(C+I/C^−I)*100

CYP2B6 = target: T2, CYP2B6 (Homo sapiens, UniProt P20813); assay: biochemical
T2 sequence (P20813 1-491): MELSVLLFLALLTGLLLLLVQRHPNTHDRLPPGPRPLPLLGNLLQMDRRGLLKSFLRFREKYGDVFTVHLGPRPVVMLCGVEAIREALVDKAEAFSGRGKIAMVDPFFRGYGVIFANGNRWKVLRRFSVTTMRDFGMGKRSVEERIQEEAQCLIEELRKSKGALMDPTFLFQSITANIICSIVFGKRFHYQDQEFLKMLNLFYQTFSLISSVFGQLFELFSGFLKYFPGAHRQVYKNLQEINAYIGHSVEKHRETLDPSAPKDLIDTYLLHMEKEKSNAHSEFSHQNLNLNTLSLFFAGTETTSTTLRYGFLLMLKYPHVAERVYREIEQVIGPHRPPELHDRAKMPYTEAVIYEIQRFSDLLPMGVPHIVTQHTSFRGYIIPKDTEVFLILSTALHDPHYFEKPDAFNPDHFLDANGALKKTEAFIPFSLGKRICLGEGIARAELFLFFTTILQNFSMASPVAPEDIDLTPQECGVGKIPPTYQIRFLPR

[1] = urine; cited from earlier work

Molecule `Cc1ccc(C)c(OCCCC(C)(C)C(=O)O[C@@H]2O[C@H](C(=O)O)[C@@H](O)[C@H](O)[C@H]2O)c1` [Gemfibrozil glucuronide, reference compound] has an IC50 (CYP2C8) of 0.76 µM.

For `CC(=O)N1CCN(c2ccc(OCC3COC(Cn4ccnc4)(c4ccc(Cl)cc4Cl)O3)cc2)CC1` (stereo not drawn) [Ketoconazole, reference compound], the IC50 (CYP2B6) was 3.4 µM.

In the case of `Cc1ncc2n1-c1ccc(Cl)cc1C(c1ccccc1F)=NC2` [midazolam, 8-chloro-6-(2-fluorophenyl)-1-methyl-4H-imidazo[1,5-a][1,4]], the dose excreted unchanged [1] is given as 1%.
